{"source": "patent US12077503B2", "about": "“Substituted cyclic amides and their use as herbicides” (FMC CORPORATION, priority 2015, dated 2024)", "assay_type_in_all_cases": "in vivo", "key": {"Kochia (Kochia scoparia) [1]": {"test_system": "Kochia (Kochia scoparia)", "assay": "Test A preemergence", "settings": "Bassia scoparia, pre-emergence, 240 h, 0 to 100 scale where 0 is no effect and 100 is complete control, read-out: Kochia plant response rating", "method_in_brief": "(§1)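 Visual injury scores from 0, no effect, to 100, complete control, were assigned versus untreated controls roughly 10 d after treatment in the greenhouse. Test chemicals, formulated with surfactant in a non-phytotoxic solvent, were applied to planted seeds as a preemergence soil spray or postemergence to one- to two-leaf plants 2 to 10 cm tall, in loam–sand soil.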"}, "[2]": {"test_system": "barnyardgrass (Echinochloa crus-galli)", "assay": "Test A preemergence", "settings": "Echinochloa crus-galli, pre-emergence, 240 h, 0 to 100 scale where 0 is no effect and 100 is complete control, read-out: Barnyardgrass plant response rating", "method_in_brief": "as §1"}, "[3]": {"test_system": "giant foxtail (Setaria faberii)", "assay": "Test A preemergence", "settings": "Setaria faberi, pre-emergence, 240 h, 0 to 100 scale where 0 is no effect and 100 is complete control, read-out: Foxtail, Giant plant response rating", "method_in_brief": "as §1"}, "[4]": {"test_system": "pigweed (Amaranthus retroflexus)", "assay": "Test A preemergence", "settings": "Amaranthus retroflexus, pre-emergence, 240 h, 0 to 100 scale where 0 is no effect and 100 is complete control, read-out: Pigweed plant response rating"}, "[5]": {"test_system": "ragweed (common ragweed, Ambrosia elatior)", "assay": "Test A preemergence", "settings": "Ambrosia artemisiifolia, pre-emergence, 240 h, 0 to 100 scale where 0 is no effect and 100 is complete control, read-out: Ragweed plant response rating", "method_in_brief": "as §1"}, "[6]": {"test_system": "ryegrass, Italian (Italian ryegrass, Lolium multiflorum)", "assay": "Test A preemergence", "settings": "Lolium multiflorum, pre-emergence, 240 h, 0 to 100 scale where 0 is no effect and 100 is complete control, read-out: Ryegrass, Italian plant response rating", "method_in_brief": "as §1"}, "[7]": {"test_system": "Galium (catchweed bedstraw, Galium aparine)", "assay": "Test A postemergence", "settings": "Galium, post-emergence, 240 h", "method_in_brief": "as §1"}, "Kochia (Kochia scoparia) [8]": {"test_system": "Kochia (Kochia scoparia)", "assay": "Test A postemergence", "settings": "Bassia scoparia, post-emergence, 240 h", "method_in_brief": "as §1"}, "[9]": {"test_system": "barnyardgrass (Echinochloa crus-galli)", "assay": "Test A postemergence", "settings": "Echinochloa crus-galli, post-emergence, 240 h", "method_in_brief": "as §1"}, "[10]": {"test_system": "blackgrass (Alopecurus myosuroides)", "assay": "Test A postemergence", "settings": "Alopecurus myosuroides, post-emergence, 240 h", "method_in_brief": "as §1"}, "corn (Zea mays)": {"test_system": "corn (Zea mays)", "assay": "Test A postemergence", "settings": "Zea mays, post-emergence, 240 h", "method_in_brief": "as §1"}, "[11]": {"test_system": "giant foxtail (Setaria faberii)", "assay": "Test A postemergence", "settings": "Setaria faberi, post-emergence, 240 h", "method_in_brief": "as §1"}, "[12]": {"test_system": "pigweed (Amaranthus retroflexus)", "assay": "Test A postemergence", "settings": "Amaranthus retroflexus, post-emergence, 240 h", "method_in_brief": "as §1"}, "[13]": {"test_system": "ragweed (common ragweed, Ambrosia elatior)", "assay": "Test A postemergence", "settings": "Ambrosia artemisiifolia, post-emergence, 240 h", "method_in_brief": "as §1"}, "[14]": {"test_system": "ryegrass, Italian (Italian ryegrass, Lolium multiflorum)", "assay": "Test A postemergence", "settings": "Lolium multiflorum, post-emergence, 240 h", "method_in_brief": "as §1"}, "[15]": {"test_system": "wheat (Triticum aestivum)", "assay": "Test A postemergence", "settings": "Triticum aestivum, post-emergence, 240 h", "method_in_brief": "as §1"}, "[16]": {"test_system": "barnyardgrass (Echinochloa crus-galli)", "assay": "Test B flooded paddy test", "settings": "Echinochloa crus-galli, 250 g ai/ha, Flood; 0 to 100 scale where 0 is no effect and 100 is complete control; read-out: Barnyardgrass plant response rating", "method_in_brief": "(§2)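 Rating scale 0–100 (visual, vs untreated controls) after a 13–15 d greenhouse period; application to the flood layer, 3 cm above soil and maintained; plants at 2-leaf stage when treated.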"}, "[17]": {"test_system": "ducksalad (Heteranthera limosa)", "assay": "Test B flooded paddy test", "settings": "Heteranthera limosa, 250 g ai/ha, Flood; 0 to 100 scale where 0 is no effect and 100 is complete control; read-out: Ducksalad plant response rating", "method_in_brief": "as §2"}, "rice (Oryra sativa)": {"test_system": "rice (Oryra sativa)", "assay": "Test B flooded paddy test", "settings": "Oryza sativa, 250 g ai/ha, Flood; 0 to 100 scale where 0 is no effect and 100 is complete control; read-out: Rice plant response rating", "method_in_brief": "as §2"}, "[18]": {"test_system": "sedge, umbrella (small-flower umbrella sedge, Cyperus difformis)", "assay": "Test B flooded paddy test", "settings": "Cyperus difformis, 250 g ai/ha, Flood; 0 to 100 scale where 0 is no effect and 100 is complete control; read-out: Sedge, Umbrella plant response rating", "method_in_brief": "as §2"}, "[19]": {"settings": "125 g ai/ha, preemergence, approx. 10 d"}}}
{"smiles": "CN1C[C@H](c2ccc(C(F)(F)F)cn2)[C@@H](C(=O)Nc2ccc(F)c(F)c2F)C1=O", "note": "[Compound 1106]", "values": [{"measurement": "pest or weed control at 31 g/ha", "setting": "Kochia (Kochia scoparia) [1]; 31 g ai/ha, Preemergence", "value": 0, "unit": "%"}, {"measurement": "pest or weed control at 125 g/ha", "setting": "Kochia (Kochia scoparia) [1]; [19]", "value": 60, "unit": "%"}, {"measurement": "pest or weed control at 31 g/ha", "setting": "[2]; 31 g ai/ha, Preemergence", "value": 50, "unit": "%"}, {"measurement": "pest or weed control at 125 g/ha", "setting": "[2]; [19]", "value": 90, "unit": "%"}, {"measurement": "pest or weed control at 31 g/ha", "setting": "[3]; 31 g ai/ha, Preemergence", "value": 60, "unit": "%"}, {"measurement": "pest or weed control at 125 g/ha", "setting": "[3]; [19]", "value": 90, "unit": "%"}, {"measurement": "pest or weed control at 31 g/ha", "setting": "[4]; 31 g ai/ha, Preemergence", "value": 0, "unit": "%"}, {"measurement": "pest or weed control at 125 g/ha", "setting": "[4]; [19]", "value": 20, "unit": "%"}, {"measurement": "pest or weed control at 31 g/ha", "setting": "[5]; 31 g ai/ha, Preemergence", "value": 0, "unit": "%"}, {"measurement": "pest or weed control at 125 g/ha", "setting": "[5]; [19]", "value": 30, "unit": "%"}, {"measurement": "pest or weed control at 31 g/ha", "setting": "[6]; 31 g ai/ha, Preemergence", "value": 0, "unit": "%"}, {"measurement": "pest or weed control at 125 g/ha", "setting": "[6]; [19]", "value": 0, "unit": "%"}, {"measurement": "pest or weed control at 125 g/ha", "setting": "[7]; 125 g ai/ha, postemergence, visual injury on 0 to 100 scale (0 no effect, 100 complete control), approx. 10 d, read-out: Galium plant response rating", "value": 60, "unit": "%"}, {"measurement": "pest or weed control at 31 g/ha", "setting": "[7]; Postemergence, 31 g ai/ha, visual injury after approx. 10 d, 0 to 100 scale, 0 no effect, 100 complete control, read-out: Plant response rating, Galium", "value": 40, "unit": "%"}, {"measurement": "pest or weed control at 125 g/ha", "setting": "Kochia (Kochia scoparia) [8]; 125 g ai/ha, postemergence, visual injury on 0 to 100 scale (0 no effect, 100 complete control), approx. 10 d, read-out: Kochia plant response rating", "value": 60, "unit": "%"}, {"measurement": "pest or weed control at 31 g/ha", "setting": "Kochia (Kochia scoparia) [8]; Postemergence, 31 g ai/ha, visual injury after approx. 10 d, 0 to 100 scale, 0 no effect, 100 complete control, read-out: Plant response rating, Kochia", "value": 0, "unit": "%"}, {"measurement": "pest or weed control at 125 g/ha", "setting": "[9]; 125 g ai/ha, postemergence, visual injury on 0 to 100 scale (0 no effect, 100 complete control), approx. 10 d, read-out: Barnyardgrass plant response rating", "value": 80, "unit": "%"}, {"measurement": "pest or weed control at 31 g/ha", "setting": "[9]; Postemergence, 31 g ai/ha, visual injury after approx. 10 d, 0 to 100 scale, 0 no effect, 100 complete control, read-out: Plant response rating, Barnyardgrass", "value": 30, "unit": "%"}, {"measurement": "pest or weed control at 125 g/ha", "setting": "[10]; 125 g ai/ha, postemergence, visual injury on 0 to 100 scale (0 no effect, 100 complete control), approx. 10 d, read-out: Blackgrass plant response rating", "value": 0, "unit": "%"}, {"measurement": "pest or weed control at 31 g/ha", "setting": "[10]; Postemergence, 31 g ai/ha, visual injury after approx. 10 d, 0 to 100 scale, 0 no effect, 100 complete control, read-out: Plant response rating, Blackgrass", "value": 0, "unit": "%"}, {"measurement": "plant injury at 125 g/ha", "setting": "corn (Zea mays); 125 g ai/ha, postemergence, visual injury on 0 to 100 scale (0 no effect, 100 complete control), approx. 10 d, read-out: Corn plant response rating", "value": 0, "unit": "%"}, {"measurement": "Corn plant response rating (crop injury, 0 = no effect, 100 = complete kill) at 31 g/ha", "setting": "corn (Zea mays); Postemergence, 31 g ai/ha, visual injury after approx. 10 d, 0 to 100 scale, 0 no effect, 100 complete control", "value": 0, "unit": "%"}, {"measurement": "pest or weed control at 125 g/ha", "setting": "[11]; 125 g ai/ha, postemergence, visual injury on 0 to 100 scale (0 no effect, 100 complete control), approx. 10 d, read-out: Foxtail, Giant plant response rating", "value": 60, "unit": "%"}, {"measurement": "pest or weed control at 31 g/ha", "setting": "[11]; Postemergence, 31 g ai/ha, visual injury after approx. 10 d, 0 to 100 scale, 0 no effect, 100 complete control, read-out: Plant response rating, Foxtail, Giant", "value": 0, "unit": "%"}, {"measurement": "pest or weed control at 125 g/ha", "setting": "[12]; 125 g ai/ha, postemergence, visual injury on 0 to 100 scale (0 no effect, 100 complete control), approx. 10 d, read-out: Pigweed plant response rating", "value": 20, "unit": "%"}, {"measurement": "pest or weed control at 31 g/ha", "setting": "[12]; Postemergence, 31 g ai/ha, visual injury after approx. 10 d, 0 to 100 scale, 0 no effect, 100 complete control, read-out: Plant response rating, Pigweed", "value": 10, "unit": "%"}, {"measurement": "pest or weed control at 125 g/ha", "setting": "[13]; 125 g ai/ha, postemergence, visual injury on 0 to 100 scale (0 no effect, 100 complete control), approx. 10 d, read-out: Ragweed plant response rating", "value": 0, "unit": "%"}, {"measurement": "pest or weed control at 31 g/ha", "setting": "[13]; Postemergence, 31 g ai/ha, visual injury after approx. 10 d, 0 to 100 scale, 0 no effect, 100 complete control, read-out: Plant response rating, Ragweed", "value": 0, "unit": "%"}, {"measurement": "pest or weed control at 125 g/ha", "setting": "[14]; 125 g ai/ha, postemergence, visual injury on 0 to 100 scale (0 no effect, 100 complete control), approx. 10 d, read-out: Ryegrass, Italian plant response rating", "value": 0, "unit": "%"}, {"measurement": "pest or weed control at 31 g/ha", "setting": "[14]; Postemergence, 31 g ai/ha, visual injury after approx. 10 d, 0 to 100 scale, 0 no effect, 100 complete control, read-out: Plant response rating, Ryegrass, Italian", "value": 0, "unit": "%"}, {"measurement": "plant injury at 125 g/ha", "setting": "[15]; 125 g ai/ha, postemergence, visual injury on 0 to 100 scale (0 no effect, 100 complete control), approx. 10 d, read-out: Wheat plant response rating", "value": 0, "unit": "%"}, {"measurement": "plant injury at 31 g/ha", "setting": "[15]; Postemergence, 31 g ai/ha, visual injury after approx. 10 d, 0 to 100 scale, 0 no effect, 100 complete control, read-out: Plant response rating, Wheat", "value": 0, "unit": "%"}, {"measurement": "pest or weed control at 250 g/ha", "setting": "[16]", "value": 70, "unit": "%"}, {"measurement": "pest or weed control at 250 g/ha", "setting": "[17]", "value": 100, "unit": "%"}, {"measurement": "pest or weed control at 250 g/ha", "setting": "rice (Oryra sativa)", "value": 40, "unit": "%"}, {"measurement": "pest or weed control at 250 g/ha", "setting": "[18]", "value": 0, "unit": "%"}]}
